Reference: US12129490B2, “Methods for generating hepatocytes and cholangiocytes from pluripotent stem cells” (UNIVERSITY HEALTH NETWORK, priority 2018, dated 2024)
“And” between values parts separate entries of the source, which are not always exact repeats. Equal values may be shown once.

What was measured:
[1] = system: human and mouse ESC; details: cited from earlier work
[2] = system: hPSC-derived hepatoblast aggregates; assay: Growth factor addition to hepatoblast aggregates co-cultured on OP9 stroma; type: cell-based, human; details: for development of CK19+ clusters: OP9 co-culture
Text: (§1) To investigate the effect of Notch signaling on cholangiocyte development, we co-cultured the hepatoblast population (day 25) with OP9 stromal cells that are known to express different Notch ligands including Jagged-1^4,5. […] To overcome this problem, we generated 3D aggregates from the day 25 monolayer cells and cultured them on the OP9 stromal cells.

[3] = system: hepatic aggregates; assay: Culture of hepatic aggregates at cAMP stage, HGF and OSM; type: cell-based, human
Protocol: The cell aggregates were cultured in HGF, Dex and OSM until day 32 at which point cAMP was added. […] In some experiments, HGF was also removed from the cultures when cAMP analog and/or cAMP agonist is added.

[4] = system: smad2; details: versus SB431 542; cited from earlier work
[5] = system: Notch pathway; assay: Hepatoblast co-culture with OP9 in presence of Notch antagonist GSI; type: cell-based, human
Protocol: RT-qPCR-based expression analysis of ALB and CK19 in the hepatoblast-derived cells following co-culture with OP9 in media supplemented with HGF (20 ng/ml), EGF (50 ng/ml), and TGFβ1 (5 ng/ml) in the presence or absence of the gamma-secretase inhibitor (GSI), an antagonist of the Notch pathway. Cells were harvested and analyzed at days 30, 33, and 36 of culture.
FIG. 15B is an RT-qPCR based expression analysis of the Notch target genes HES1, HES5 and HEY1 in hepatoblast-derived cells following culture with or without OP9. Cells were assayed at day 36 of culture. […] This value was set as 1.
To investigate the differentiation of cholangiocyte-like cells, H9-derived day 27 hepatic progenitors were co-cultured with OP 9 cells (Notch signaling donor) in the presence of HGF 20 ng/ml and EGF 50 ng/ml. The H9-derived day 27 hepatic progenitors were derived as in Example 1. When the hepatic progenitor cells received Notch signaling activation from OP-9 cells, the albumin positive cells were completely diminished and turned into CK19 positive cells with an organized branching appearance (FIG. 10a, b).
as §1
(FIG. 22) Aggregates derived from both lines generated branched structures consisting of CK19^+ALB cells following co-culture with the OP9 stromal cells. As observed with the H9-derived populations, the downregulation of ALB expression and the development of these structures were NOTCH dependent events.

[6] = system: Notch signaling; assay: 3D gel culture of chimeric hepatoblast/OP9 aggregates in presence of GSI; type: cell-based, human; details: 3D collagen/Matrigel gel
Protocol: H9-derived day 25 hepatoblast were mixed (aggregated) with OP9 stromal cells at a ratio of 4:1, in low cluster culture dishes for 48 hours. The chimeric aggregates were embedded in a mixture of type 1 collagen (1.2 mg/ml) and Matrigel (40%) to establish a 3D gel culture. The cultures were maintained over 2 weeks in the media containing of HGF, EGF and TGFβ1 in the presence or absence of GSI.
FIG. 16C is an RT-qPCR based expression analyses of pooled structures that developed in the 3D gels. The cultures were harvested at day 44 and the cells analyzed for expression of genes indicative of the hepatocyte (ALB, AFP and CYP3A7) and cholangiocyte (CK19, Sox9 and CFTR) lineages.
To determine if the branching observed in the OP9 co-cultures is indicative of the initial stages of bile duct development, we next established a culture system to promote the growth of 3D cellular structures. With this approach, chimeric aggregates consisting of day 25 hESC-derived cells and OP9 stromal cells (GFP^+) were cultured in a media mixture consisting of 1.2 mg/ml collagen, 40% Matrigel and HGF, EGF and TGFβ1 (FIG. 23a). Within 2 weeks of culture in these conditions, the aggregates underwent dramatic morphological changes and formed either tubular structures, hollow cysts or a mixture of both (FIG. 16a,b). The cysts were the most abundant structures in these cultures (FIG. 16b). […] The cells in the ducts also expressed the Cystic fibrosis transmembrane conductance regulator (CFTR), a transmembrane channel that is first expressed in the adult biliary tract. As with ZO-1, the CFTR protein was detected predominantly on the apical side of the duct-like structure. Western blot analyses confirmed the presence of the protein in the population generated from the chimeric aggregates (FIG. 23D). […] The lack of hepatic markers, including ALB, AFP and CYP3A7 and the upregulation of expression the cholangiocyte markers CK19, SOX9 and CFTR in these structures was confirmed by RT-qPCR analyses (FIG. 16c). […]

[7] = system: day 44 aggregates; assay: CYP expression in day 44 aggregates with Wnt and MEK/Erk inhibition plus cAMP agonist; type: cell-based, human; details: together with cAMP, relative to adult liver
[8] = target: T1, CYP1A2 (Homo sapiens, UniProt P05177); assay: CYP1A2 activity, phenacetin metabolism by HPLC
T1 sequence (P05177 1-516): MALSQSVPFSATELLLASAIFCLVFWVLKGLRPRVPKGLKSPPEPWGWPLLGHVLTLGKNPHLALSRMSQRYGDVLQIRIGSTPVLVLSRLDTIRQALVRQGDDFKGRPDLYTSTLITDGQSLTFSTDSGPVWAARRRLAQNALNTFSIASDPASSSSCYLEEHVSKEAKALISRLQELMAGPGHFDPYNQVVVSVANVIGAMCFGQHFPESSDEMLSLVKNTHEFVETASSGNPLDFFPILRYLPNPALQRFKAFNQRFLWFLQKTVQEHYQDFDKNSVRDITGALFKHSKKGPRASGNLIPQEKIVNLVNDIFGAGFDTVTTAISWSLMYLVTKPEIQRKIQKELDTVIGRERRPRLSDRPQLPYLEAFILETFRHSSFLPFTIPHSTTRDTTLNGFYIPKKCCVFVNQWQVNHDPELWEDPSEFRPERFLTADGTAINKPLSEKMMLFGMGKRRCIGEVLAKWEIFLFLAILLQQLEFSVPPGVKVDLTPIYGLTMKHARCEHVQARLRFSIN

[9] = OP9 co-culture with HGF, EGF, TGFβ1

In the case of `O=C1Nc2cc(Br)ccc2/C1=C1/Nc2ccccc2/C1=N\O` [BIO, 6-bromo-Indirubin-3′-Oxime], the “pluripotency of ESC” value [1] is listed as “maintain pluripotency”.
With HGF: hepatocyte growth factor the “development of CK19+ clusters” value [2] was “little effect” and the survival of aggregates ([3]; 10 ng/ml (reduced from 20 ng/ml) when cAMP was added) was “promote survival of the aggregates”.
In the case of `Cc1cccc(-c2nn(C(=S)Nc3ccccc3)cc2-c2ccnc3ccccc23)n1` [A83-01], the “inhibition of smad2, relative potency” value [4] is listed as “more potent”.
With `CC(C)C[C@H](NC(=O)[C@H](Cc1ccccc1)C[C@@H](O)[C@H](Cc1ccccc1)NC(=O)OC(C)(C)C)C(=O)N[C@@H](Cc1ccccc1)C(N)=O` [GSI] the “albumin and CK19 positive cells” value ([5]; 10 μM, H9-derived day 27 progenitors with OP9, HGF 20 ng/ml, EGF 50 ng/ml) was “albumin and CK19 positive cells were found”, the ALB expression [5, 9] was “blocked the downregulation” and the “development of branched structures” value [5, 9] was “inhibited”. For the same compound, the “proportion of CK19+ cells” value [5, 9] was “reduced”, the “increase in expression of Notch targets HES1, HES5 and HEY1” value ([5]; nine days of culture on OP9) was “block” and the “formation of duct-like structures and cysts” value [6] was “prevented”. For the same compound, the “expression of genes associated with cholangiocyte development (CK19, Sox9 and CFTR)” value ([6]; day 44) was “decrease” and the “expression of hepatocyte markers (ALB, AFP and CYP3A7)” value ([6]; day 44) was “increase”.
For OSM: Oncostatin M, the “induction of expression of Phase 1 CYP enzymes, in particular CYP 3A4” value ([3]; OSM maintained) was “inhibitory effect”.
With `O=C(NOC[C@H](O)CO)c1ccc(F)c(F)c1Nc1ccc(I)cc1F` [MEK/ErK inhibitor] the “levels of CYP3A4 expression” value [7] was “comparable to those found in the adult liver”.
With `Cc1c(OCC(F)(F)F)ccnc1C[S+]([O-])c1nc2ccccc2[nH]1` (stereo not drawn) [lansoprazole] the “increase in CYP1A2 activity on induction” value ([8]; 8-Br-cAMP-treated hESC-derived cells, induction 72 hours) was 3.4 fold, the “inducibility of CYP1A2 activity” value ([8]; H9-derived cells) was “inducible” and the “inducibility of CYP1A2 activity” value ([8]; cells not treated with 8-Br-cAMP) was “not inducible”. The “inducible CYP1A2 activity” value ([8]; iPSC-derived cells) was “not detectable” and the “induction of CYP1A2 activity” value ([8]; two independent primary hepatocyte samples) was 18 fold and 9 fold.
In the case of “TGFβ1: transforming growth factor beta 1”, the “development of CK19+ clusters” value [2] is reported as “increase in the size” and the cholangiocyte branching ([2]; hepatoblasts co-cultured with OP9) is reported as “promotes cholangiocyte branching”.
